Assay type in all cases: in vivo
Experiment [1] deals with Alopecurus myosuroides (ALOMY). In words: Example B post-emergence herbicidal activity. Conditions: 312 h, rate 250 g/ha, evaluated after 13 days, read-out: Post-emergence activity ALOMY (100=total damage to plant; 0=no damage to plant). In short, it runs like this: (§1)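 Damage was rated 13 days after treatment on a 0 (no damage) to 100 (total damage) scale. Pots of soil-sown plants had been sprayed one day after sowing for pre-emergence or at 8 days for post-emergence. Spray: acetone/water (50:50), 0.5% Tween 20.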

In experiment [2] the test system is Setaria faberi (SETFA). In words: Example B post-emergence herbicidal activity. Conditions: 312 h, rate 250 g/ha, evaluated after 13 days, read-out: Post-emergence activity SETFA (100=total damage to plant; 0=no damage to plant). The procedure, abridged:
as §1

The test system of experiment [3] is Amaranthus retoflexus (AMARE). Kind of experiment: Example B post-emergence herbicidal activity. Conditions: Amaranthus retroflexus, 312 h, rate 250 g/ha, evaluated after 13 days, read-out: Post-emergence activity AMARE (100=total damage to plant; 0=no damage to plant). In short, it runs like this:
as §1

Experiment [4] deals with Avena fatua (AVEFA). Kind of experiment: Example B post-emergence herbicidal activity. Conditions: 312 h, rate 250 g/ha, evaluated after 13 days, read-out: Post-emergence activity AVEFA (100=total damage to plant; 0=no damage to plant). The procedure, abridged: as §1
Experiment [5] deals with Echinochloa crus-galli (ECHCG). Kind of experiment: Example B post-emergence herbicidal activity. Conditions: 312 h, rate 250 g/ha, evaluated after 13 days, read-out: Post-emergence activity ECHCG (100=total damage to plant; 0=no damage to plant). The procedure, abridged:
as §1

Experiment [6] concerns Alopecurus myosuroides (ALOMY). Kind of experiment: Example B pre-emergence herbicidal activity. Conditions: 312 h, rate 250 g/ha, evaluated after 13 days, read-out: Pre-Emergence Activity ALOMY (100=total damage to plant; 0=no damage to plant). In short, it runs like this: as §1
In experiment [7] the test system is Setaria faberi (SETFA). In words: Example B pre-emergence herbicidal activity. Conditions: 312 h, rate 250 g/ha, evaluated after 13 days, read-out: Pre-Emergence Activity SETFA (100=total damage to plant; 0=no damage to plant). In short, it runs like this:
as §1

Experiment [8] concerns Amaranthus retoflexus (AMARE). In words: Example B pre-emergence herbicidal activity. Particulars: Amaranthus retroflexus, 312 h, rate 250 g/ha, evaluated after 13 days, read-out: Pre-Emergence Activity AMARE (100=total damage to plant; 0=no damage to plant). In short, it runs like this: as §1
For experiment [9], the system named is Avena fatua (AVEFA). Kind of experiment: Example B pre-emergence herbicidal activity. Particulars: 312 h, rate 250 g/ha, evaluated after 13 days, read-out: Pre-Emergence Activity AVEFA (100=total damage to plant; 0=no damage to plant). In short, it runs like this:
as §1

Experiment [10] deals with Echinochloa crus-galli (ECHCG). Kind of experiment: Example B pre-emergence herbicidal activity. Particulars: 312 h, rate 250 g/ha, evaluated after 13 days, read-out: Pre-Emergence Activity ECHCG (100=total damage to plant; 0=no damage to plant). The procedure, abridged:
as §1

For the compound `CSc1ccc(-c2nc(C3C(=O)[C@@H]4CC[C@@H](C4)C3=O)c(C)s2)cc1` (stereo partly shown) [Compound T81], the pest or weed control at 250 g/ha is 50% in experiment [1]; 100% in the experiment with Setaria faberi (SETFA) [2]; 0% in experiment [3]; 50% in the experiment on Avena fatua (AVEFA) [4]; 100% in experiment [5]; 50% in [6]. For the same compound, the pest or weed control at 250 g/ha came out at 100% in the experiment with Setaria faberi (SETFA) [7], 0% in experiment [8], 40% in the experiment on Avena fatua (AVEFA) [9] and 100% in [10].
In the case of `Cc1sc(-c2ccc([S+](C)[O-])cc2)nc1C1C(=O)[C@@H]2CC[C@@H](C2)C1=O` (stereo partly shown) [Compound T82], the pest or weed control at 250 g/ha in [1] came to 20%; in the experiment with Setaria faberi (SETFA) [2] it was 100%; in experiment [3] it was 30%; in the experiment with Avena fatua (AVEFA) [4], 0%; in experiment [5] it was 100%; in [6] it was 0%. The pest or weed control at 250 g/ha with Setaria faberi (SETFA) [7] amounted to 80%; in [8], 0%; in the experiment with Avena fatua (AVEFA) [9] it was 0%; in experiment [10], 40%.
As to `CCc1sc(-c2ccc(SC)cc2)nc1C1C(=O)[C@@H]2CC[C@@H](C2)C1=O` (stereo partly shown) [Compound T83], the pest or weed control at 250 g/ha in experiment [1] came out at 60%; in the experiment on Setaria faberi (SETFA) [2], 100%; in [3], 0%; in the experiment with Avena fatua (AVEFA) [4], 100%; in experiment [5], 100%; in experiment [6] it was 50%. Moreover, the pest or weed control at 250 g/ha with Setaria faberi (SETFA) [7] was determined as 90%; in experiment [8], 0%; with Avena fatua (AVEFA) [9], 0%; in experiment [10] it was 100%.
Consider `Cc1sc(-c2ccc(OC(F)F)cc2Cl)nc1C1C(=O)[C@@H]2CC[C@@H](C2)C1=O` (stereo partly shown) [Compound T84], for which the pest or weed control at 250 g/ha in experiment [1] is 90%; in the experiment on Setaria faberi (SETFA) [2] it was 100%; in experiment [3], 40%; in the experiment on Avena fatua (AVEFA) [4] it was 70%; in experiment [5], 100%; in experiment [6] it was 70%. In addition, the pest or weed control at 250 g/ha in the experiment with Setaria faberi (SETFA) [7] came out at 100%; in experiment [8], 0%; in the experiment on Avena fatua (AVEFA) [9], 40%; in [10] it was 100%.
As to `Cc1sc(-c2ccc(C(C)C)cc2)nc1C1C(=O)[C@@H]2CC[C@@H](C2)C1=O` (stereo partly shown) [Compound T87], the pest or weed control at 250 g/ha in [1] stood at 50%; in the experiment on Setaria faberi (SETFA) [2], 90%; in experiment [3], 0%; in the experiment with Avena fatua (AVEFA) [4], 60%; in experiment [5] it was 90%; in [6], 20%. For the same compound, the pest or weed control at 250 g/ha with Setaria faberi (SETFA) [7] was found to be 60%; in [8], 20%; with Avena fatua (AVEFA) [9] it was 50%; in [10], 60%.
Take `Cc1cnc(-c2ccc(Cl)cc2)nc1C1C(=O)[C@@H]2CC[C@@H](C2)C1=O` (stereo partly shown) [Compound T88]: the pest or weed control at 250 g/ha turned out to be 10% in [1]; 70% in the experiment on Setaria faberi (SETFA) [2]; 0% in experiment [3]; 0% in the experiment on Avena fatua (AVEFA) [4]; 90% in experiment [5]; 0% in experiment [6]. Besides, the pest or weed control at 250 g/ha with Setaria faberi (SETFA) [7] came out at 80%; in experiment [8] it was 0%; with Avena fatua (AVEFA) [9], 0%; in experiment [10] it was 60%.
In the case of `Cc1sc(-c2ccc(OC(F)F)cc2F)nc1C1C(=O)[C@@H]2CC[C@@H](C2)C1=O` (stereo partly shown) [Compound T92], the pest or weed control at 250 g/ha in experiment [1] was 100%; in the experiment with Setaria faberi (SETFA) [2], 100%; in [3], 10%; in the experiment with Avena fatua (AVEFA) [4], 100%; in [5], 100%; in [6], 70%. In addition, the pest or weed control at 250 g/ha came to 100% with Setaria faberi (SETFA) [7], 0% in experiment [8], 90% with Avena fatua (AVEFA) [9] and 100% in experiment [10].
With `CCc1sc(-c2ccccc2)nc1C1C(=O)[C@@H]2CC[C@@H](C2)C1=O` (stereo partly shown) [Compound T93], the pest or weed control at 250 g/ha was determined as 30% in experiment [1]; 70% in the experiment with Setaria faberi (SETFA) [2]; 0% in experiment [3]; 0% with Avena fatua (AVEFA) [4]; 70% in [5]; 20% in experiment [6]. For the same compound, the pest or weed control at 250 g/ha was found to be 20% with Setaria faberi (SETFA) [7], 0% in experiment [8], 0% in the experiment on Avena fatua (AVEFA) [9] and 40% in experiment [10].
Consider `CCc1sc(-c2ccc(C(F)(F)F)cc2)nc1C1C(=O)[C@@H]2CC[C@@H](C2)C1=O` (stereo partly shown) [Compound T96], for which the pest or weed control at 250 g/ha in experiment [1] was determined as 100%; in the experiment on Setaria faberi (SETFA) [2], 100%; in [3] it was 30%; in the experiment with Avena fatua (AVEFA) [4] it was 100%; in experiment [5] it was 100%; in experiment [6], 80%. Moreover, the pest or weed control at 250 g/ha was 100% in the experiment on Setaria faberi (SETFA) [7], 0% in [8], 100% in the experiment on Avena fatua (AVEFA) [9] and 100% in experiment [10].
In the case of `CCc1sc(-c2ccc3ccccc3c2)nc1C1C(=O)[C@@H]2CC[C@@H](C2)C1=O` (stereo partly shown) [Compound T99], the pest or weed control at 250 g/ha came out at 100% in [1]; 100% with Setaria faberi (SETFA) [2]; 0% in experiment [3]; 100% in the experiment on Avena fatua (AVEFA) [4]; 100% in experiment [5]; 50% in [6]. Moreover, the pest or weed control at 250 g/ha stood at 60% in the experiment with Setaria faberi (SETFA) [7], 20% in [8], 30% with Avena fatua (AVEFA) [9] and 60% in experiment [10].
In the case of `CCc1sc(-c2cc(F)c(OC)cc2F)nc1C1C(=O)[C@@H]2CC[C@@H](C2)C1=O` (stereo partly shown) [Compound T102], the pest or weed control at 250 g/ha in experiment [1] was found to be 100%; in the experiment on Setaria faberi (SETFA) [2] it was 100%; in experiment [3], 0%; in the experiment on Avena fatua (AVEFA) [4], 100%; in experiment [5], 100%; in experiment [6] it was 50%. For the same compound, the pest or weed control at 250 g/ha came to 50% in the experiment with Setaria faberi (SETFA) [7], 0% in experiment [8], 30% in the experiment on Avena fatua (AVEFA) [9] and 70% in [10].
With `CCc1sc(-c2ccc(F)cc2F)nc1C1C(=O)[C@@H]2CC[C@@H](C2)C1=O` (stereo partly shown) [Compound T104], the pest or weed control at 250 g/ha is 100% in experiment [1]; 100% in the experiment on Setaria faberi (SETFA) [2]; 0% in [3]; 90% in the experiment with Avena fatua (AVEFA) [4]; 100% in experiment [5]; 70% in [6]. In addition, the pest or weed control at 250 g/ha in the experiment with Setaria faberi (SETFA) [7] was 50%; in experiment [8], 0%; with Avena fatua (AVEFA) [9] it was 20%; in [10], 100%.
For the compound `CCc1sc(-c2ccccc2Cl)nc1C1C(=O)[C@@H]2CC[C@@H](C2)C1=O` (stereo partly shown) [Compound T106], the pest or weed control at 250 g/ha worked out at 10% in experiment [1]; 70% in the experiment on Setaria faberi (SETFA) [2]; 0% in [3]; 0% in the experiment with Avena fatua (AVEFA) [4]; 30% in [5]; 0% in experiment [6]. Further, the pest or weed control at 250 g/ha in the experiment with Setaria faberi (SETFA) [7] was determined as 20%; in experiment [8], 0%; with Avena fatua (AVEFA) [9], 0%; in experiment [10], 10%.

Source of the values: patent publication US8598365B2, “Herbicides” (Syngenta Limited, priority 2007, dated 2013).
